Columns and labels:
DG-75 = test: cells; type: functional, cell-based; settings: Homo sapiens;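 also: growth inhibition of DG-75 cells, read out with a cell viability assay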
Description: SANGER: Inhibition of human DG-75 cell growth in a cell viability assay.

NCI-H748 = test: cells; type: functional, cell-based; settings: Homo sapiens;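 also: growth inhibition of NCI-H748 cells, measured by a cell viability assay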
Description: SANGER: Inhibition of human NCI-H748 cell growth in a cell viability assay.

CPC-N = test: cells; type: functional, cell-based; settings: Homo sapiens;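 also: growth inhibition of CPC-N cells, with a cell viability assay as the readout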
Description: SANGER: Inhibition of human CPC-N cell growth in a cell viability assay.

MZ1-PC = test: cells; type: functional, cell-based, Homo sapiens; settings: Homo sapiens, MZ1-PC;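 also: cell viability assay measuring growth inhibition of human MZ1-PC cells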
Description: SANGER: Inhibition of human MZ1-PC cell growth in a cell viability assay.

NCI-H345 = test: cells; type: functional, cell-based; settings: Homo sapiens;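 also: growth inhibition of NCI-H345 cells measured with a cell viability assay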
Description: SANGER: Inhibition of human NCI-H345 cell growth in a cell viability assay.

DMS-153 = test: cells; type: functional, cell-based; settings: Homo sapiens
Description: SANGER: Inhibition of human DMS-153 cell growth in a cell viability assay.

ECC4 = test: cells; type: functional, cell-based; settings: Homo sapiens;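 also: growth inhibition of ECC4 cells, read out with a cell viability assay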
Description: SANGER: Inhibition of human ECC4 cell growth in a cell viability assay.

SBC-1 = test: cells; type: functional, cell-based; settings: Homo sapiens;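 also: cell viability assay measuring growth inhibition of the SBC-1 cell line, IC50 being the concentration that halves growth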
Description: SANGER: Inhibition of human SBC-1 cell growth in a cell viability assay.

SIMA = test: cells; type: functional, cell-based, Homo sapiens; settings: Homo sapiens, SIMA;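 also: growth inhibition of SIMA cells, measured with a cell viability readout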
Description: SANGER: Inhibition of human SIMA cell growth in a cell viability assay.

LS-123 = test: cells; type: functional, cell-based, Homo sapiens; settings: Homo sapiens, LS-123
LNCaP-Clone-FGC = test: cells; type: functional, cell-based, Homo sapiens; settings: Homo sapiens, LNCaP-Clone-FGC
BC1 cell line = test: SANGER: Inhibition of human BC-1 cell growth in a cell viability assay.; type: functional, cell-based
L-428 = test: cells; type: functional, cell-based; settings: Homo sapiens
Description: SANGER: Inhibition of human L-428 cell growth in a cell viability assay.

LB647-SCLC = test: cells; type: functional, cell-based; settings: Homo sapiens;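 also: cell growth inhibition, read out by a viability assay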
Description: SANGER: Inhibition of human LB647-SCLC cell growth in a cell viability assay.

PF-382 = test: cells; type: functional, cell-based; settings: Homo sapiens
Description: SANGER: Inhibition of human PF-382 cell growth in a cell viability assay.

Daudi = test: cells; type: functional, cell-based; settings: Homo sapiens;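 also: growth inhibition of Daudi cells, read out by a viability assay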
Description: SANGER: Inhibition of human Daudi cell growth in a cell viability assay.

MHH-CALL-2 = test: cells; type: functional, cell-based; settings: Homo sapiens;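 also: growth inhibition of the cell line, read out in a cell viability assay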
Description: SANGER: Inhibition of human MHH-CALL-2 cell growth in a cell viability assay.

LP-1 = test: cells; type: functional, cell-based; settings: Homo sapiens;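 also: growth inhibition of human LP-1 cells, with the read-out taken from a cell viability assay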
Description: SANGER: Inhibition of human LP-1 cell growth in a cell viability assay.

RL = test: cells; type: functional, cell-based; settings: Homo sapiens
Description: SANGER: Inhibition of human RL cell growth in a cell viability assay.

IMR-5 = test: cells; type: functional, cell-based; settings: Homo sapiens;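 also: growth inhibition of human IMR-5 cells, read out with a cell viability assay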
Description: SANGER: Inhibition of human IMR-5 cell growth in a cell viability assay.

LB831-BLC = test: cells; type: functional, cell-based, Homo sapiens; settings: Homo sapiens, LB831-BLC;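 also: growth inhibition of LB831-BLC cells, read out with a cell viability assay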
Description: SANGER: Inhibition of human LB831-BLC cell growth in a cell viability assay.

NCI-H1417 = test: cells; type: functional, cell-based; settings: Homo sapiens;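 also: human NCI-H1417 cells, growth inhibition determined with a cell viability readout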
Description: SANGER: Inhibition of human NCI-H1417 cell growth in a cell viability assay.

RPMI-6666 = test: cells; type: functional, cell-based; settings: Homo sapiens
Description: SANGER: Inhibition of human RPMI-6666 cell growth in a cell viability assay.

TE-441-T = test: cells; type: functional, cell-based; settings: Homo sapiens
Description: SANGER: Inhibition of human TE-441-T cell growth in a cell viability assay.

ECC12 = test: cells; type: functional, cell-based; settings: Homo sapiens
Description: SANGER: Inhibition of human ECC12 cell growth in a cell viability assay.

BE-13 = test: cells; type: functional, cell-based; settings: Homo sapiens;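 also: growth inhibition of human BE-13 cells, measured with a cell viability assay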
Description: SANGER: Inhibition of human BE-13 cell growth in a cell viability assay.

U-698-M = test: cells; type: functional, cell-based; settings: Homo sapiens
Description: SANGER: Inhibition of human U-698-M cell growth in a cell viability assay.

EHEB = test: cells; type: functional, cell-based; settings: Homo sapiens;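 also: growth inhibition of human EHEB cells, read out with a cell viability assay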
Description: SANGER: Inhibition of human EHEB cell growth in a cell viability assay.

NALM-6 = test: cells; type: functional, cell-based; settings: Homo sapiens;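 also: growth inhibition of NALM-6 cells, read out with a cell viability assay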
Description: SANGER: Inhibition of human NALM-6 cell growth in a cell viability assay.

MS-1 = test: cells; type: functional, cell-based; settings: Homo sapiens
Description: SANGER: Inhibition of human MS-1 cell growth in a cell viability assay.

RPMI-8226 = test: cells; type: functional, cell-based; settings: Homo sapiens
Description: SANGER: Inhibition of human RPMI-8226 cell growth in a cell viability assay.

REH = test: cells; type: functional, cell-based; settings: Homo sapiens;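 also: growth inhibition of REH cells determined with a cell viability read-out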
Description: SANGER: Inhibition of human REH cell growth in a cell viability assay.

TALL-1 = test: cells; type: functional, cell-based; settings: Homo sapiens;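 also: growth inhibition of cultured human TALL-1 cells, read out by a cell viability assay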
Description: SANGER: Inhibition of human TALL-1 cell growth in a cell viability assay.

NCI-H2081 = test: cells; type: functional, cell-based; settings: Homo sapiens;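 also: growth inhibition of human NCI-H2081 cells, read out with a cell viability assay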
Description: SANGER: Inhibition of human NCI-H2081 cell growth in a cell viability assay.

GCIY = test: cells; type: functional, cell-based, Homo sapiens; settings: Homo sapiens, GCIY;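 also: growth inhibition of the human GCIY cell line, read out by a cell viability assay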
Description: SANGER: Inhibition of human GCIY cell growth in a cell viability assay.

MOLT-13 = test: cells; type: functional, cell-based; settings: Homo sapiens;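 also: IC50 for suppression of MOLT-13 cell growth, read out with a cell viability assay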
Description: SANGER: Inhibition of human MOLT-13 cell growth in a cell viability assay.

SMILES | IC50 (DG-75) [µM] | IC50 (NCI-H748) [µM] | IC50 (CPC-N) [µM] | IC50 (MZ1-PC) [µM] | IC50 (NCI-H345) [µM] | IC50 (DMS-153) [µM] | IC50 (ECC4) [µM] | IC50 (SBC-1) [µM] | IC50 (SIMA) [µM] | IC50 (LS-123) [µM] | IC50 (LNCaP-Clone-FGC) [µM] | IC50 (BC1 cell line) [µM] | IC50 (L-428) [µM] | IC50 (LB647-SCLC) [µM] | IC50 (PF-382) [µM] | IC50 (Daudi) [µM] | IC50 (MHH-CALL-2) [µM] | IC50 (LP-1) [µM] | IC50 (RL) [µM] | IC50 (IMR-5) [µM] | other results
CS(=O)(=O)CCNCc1ccc(-c2ccc3ncnc(Nc4ccc(OCc5cccc(F)c5)c(Cl)c4)c3c2)o1 [LAPATINIB] | > 2 | > 2 | > 2 | > 2 | > 2 | > 2 | > 2 | > 2 | > 2 | > 2 | > 2 | > 2 | > 2 | > 2 | > 2 | > 2 | > 2 | > 2 | > 2 | > 2 | IC50 (LB831-BLC): > 2 µM; IC50 (NCI-H1417): > 2 µM; IC50 (RPMI-6666): > 2 µM; IC50 (TE-441-T): > 2 µM; IC50 (ECC12): 0.0923 µM; IC50 (BE-13): > 2 µM; IC50 (U-698-M): > 2 µM; IC50 (EHEB): > 2 µM; IC50 (NALM-6): > 2 µM; IC50 (MS-1): > 2 µM; IC50 (RPMI-8226): > 2 µM; IC50 (REH): > 2 µM; IC50 (TALL-1): > 2 µM; IC50 (NCI-H2081): > 2 µM; IC50 (GCIY): > 2 µM
CCc1nc(N)nc(N)c1-c1ccc(Cl)cc1 [PYRIMETHAMINE] | 14.6 | > 20 | > 20 | > 20 | > 20 | > 20 | > 20 | > 20 | > 20 | > 20 | > 20 | 5.1 | > 20 | > 20 | 14.6 | > 20 | > 20 | > 20 | > 20 | > 20 | IC50 (MOLT-13): > 20 µM; IC50 (LB831-BLC): > 20 µM; IC50 (NCI-H1417): > 20 µM; IC50 (RPMI-6666): 14.6 µM; IC50 (TE-441-T): > 20 µM; IC50 (ECC12): 2.56 µM; IC50 (BE-13): 7.77 µM; IC50 (U-698-M): > 20 µM; IC50 (NALM-6): 19.8 µM; IC50 (MS-1): > 20 µM; IC50 (RPMI-8226): > 20 µM; IC50 (REH): > 20 µM; IC50 (TALL-1): > 20 µM; IC50 (NCI-H2081): > 20 µM; IC50 (GCIY): > 20 µM
CNC(=O)c1cc(Oc2ccc(NC(=O)Nc3ccc(Cl)c(C(F)(F)F)c3)cc2)ccn1 [SORAFENIB] | > 4 | > 4 | > 4 | 3.48 | > 4 | > 4 | > 4 | > 4 | > 4 | > 4 | > 4 | 3.74 | > 4 | > 4 | > 4 | > 4 | > 4 | > 4 | > 4 | > 4 | IC50 (MOLT-13): > 4 µM; IC50 (LB831-BLC): > 4 µM; IC50 (NCI-H1417): > 4 µM; IC50 (RPMI-6666): > 4 µM; IC50 (TE-441-T): > 4 µM; IC50 (ECC12): > 4 µM; IC50 (BE-13): 2.7 µM; IC50 (U-698-M): > 4 µM; IC50 (NALM-6): > 4 µM; IC50 (MS-1): > 4 µM; IC50 (RPMI-8226): > 4 µM; IC50 (REH): > 4 µM; IC50 (TALL-1): > 4 µM; IC50 (NCI-H2081): > 4 µM; IC50 (GCIY): > 4 µM
O=C(/C=C/c1ccccc1)NC(NC(=S)Nc1cccc2cccnc12)C(Cl)(Cl)Cl (stereo not given) [SALUBRINAL] | > 16 | > 16 | > 16 | > 16 | > 16 | > 16 | > 16 | > 16 | > 16 | > 16 | > 16 | 15.2 | > 16 | > 16 | > 16 | 6.34 | > 16 | 3.37 | > 16 | 13.8 | IC50 (MOLT-13): > 16 µM; IC50 (LB831-BLC): > 16 µM; IC50 (NCI-H1417): > 16 µM; IC50 (RPMI-6666): > 16 µM; IC50 (TE-441-T): > 16 µM; IC50 (ECC12): > 16 µM; IC50 (BE-13): 8.27 µM; IC50 (U-698-M): > 16 µM; IC50 (NALM-6): 13.1 µM; IC50 (MS-1): > 16 µM; IC50 (RPMI-8226): > 16 µM; IC50 (REH): > 16 µM; IC50 (TALL-1): > 16 µM; IC50 (NCI-H2081): > 16 µM; IC50 (GCIY): > 16 µM

Reference: ChEMBL document CHEMBL1201861, “Genomics of Drug Sensitity in Cancer screening data, Wellcome Trust Sanger Institute”
